This is an account of results in BindingDB's records for doi:10.7270/Q2MP51PC (Pcmd, 2008).

Where only a bound is given, the exact number is not on record here.

In general, IC50 refers to the point on the concentration scale where inhibition reaches its midpoint. Low values mean greater potency, high ones weaker potency.

This test concerns the target T1, Complement C1s subcomponent (Homo sapiens, UniProt P09871).
T1 sequence (P09871 whole entry): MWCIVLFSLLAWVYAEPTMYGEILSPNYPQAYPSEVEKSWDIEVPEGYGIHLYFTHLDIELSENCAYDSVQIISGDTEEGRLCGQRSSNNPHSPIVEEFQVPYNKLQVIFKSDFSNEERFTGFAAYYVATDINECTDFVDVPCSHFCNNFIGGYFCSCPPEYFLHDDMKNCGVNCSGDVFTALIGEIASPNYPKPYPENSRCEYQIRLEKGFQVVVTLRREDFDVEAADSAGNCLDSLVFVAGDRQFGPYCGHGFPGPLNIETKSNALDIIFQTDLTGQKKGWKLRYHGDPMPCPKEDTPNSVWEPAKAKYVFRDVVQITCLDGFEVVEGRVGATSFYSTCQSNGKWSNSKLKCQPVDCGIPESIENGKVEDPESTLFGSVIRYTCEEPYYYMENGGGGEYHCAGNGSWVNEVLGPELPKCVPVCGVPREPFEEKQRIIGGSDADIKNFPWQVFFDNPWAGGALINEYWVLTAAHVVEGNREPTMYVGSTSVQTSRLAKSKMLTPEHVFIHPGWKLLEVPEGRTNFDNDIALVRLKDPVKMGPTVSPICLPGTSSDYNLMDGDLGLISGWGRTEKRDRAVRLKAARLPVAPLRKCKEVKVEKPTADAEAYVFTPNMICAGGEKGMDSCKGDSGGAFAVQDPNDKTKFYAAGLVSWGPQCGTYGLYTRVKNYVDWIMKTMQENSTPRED
Description: C1s inhibitor IC50 values, dose response, biochemical (AID 787).
As for `Cn1c(Cn2c(=O)sc3ccccc32)nnc1SCC(=O)NCc1ccccc1Cl` [MLS000118585], the IC50 is greater than 50 µM.
With `CCC(C)N1CC23C=CC(O2)C(C(=O)OCc2ccccc2)C3C1=O` (configuration not stated) [3-sec-Butyl-4-oxo-10-oxa-3-aza-tricyclo[5.2.1.0*1,5*]dec-8-ene-6-carboxylic acid benzyl ester], the IC50 is greater than 50 µM.
In the case of `O=c1oc(-c2ccco2)nc2ccccc12` [2-Furan-2-yl-benzo[d][1,3]oxazin-4-one], 4.62 µM corresponded to half-maximal inhibition (IC50).
Next, `COc1ccccc1S(=O)(=O)Cc1ccc(C(=O)NCCN(C)C)o1` [MLS000120198]: greater than 50 µM.
Regarding `O=C(N1CCOCC1)C12CCC3CC(CC(C3)C1)C2` [MLS000071057], the IC50 was greater than 50 µM.
Regarding `O=C(c1ccco1)N1C(=O)c2cccc3cccc1c23` [1-(2-furoyl)benzo[cd]indol-2(1H)-one], the IC50 was greater than 50 µM.
The figure for `COc1ccc(CC(=O)OCc2cc3ccccc3[nH]c2=O)cc1` [(2-oxidanylidene-1H-quinolin-3-yl)methyl 2-(4-methoxyphenyl)ethanoate] is greater than 50 µM; for `O=C(NCCc1ccccc1)c1noc2c1CCc1ccccc1-2` [MLS000087424] it is 14 µM; for `Cc1nc(C)c(C(=O)Nc2cccc(C)c2C)o1` [MLS000118537] it is greater than 50 µM.
`O=C(Nc1ccc(Cl)cc1)c1ccc2c(c1)OCO2` [MLS000062068] gave an IC50 greater than 50 µM.
In the case of `COc1cccc(NC(=O)CCP(C)(=O)O)c1` [MLS000079835], the IC50 is greater than 50 µM.
In the case of `O=C(c1csc2ccccc12)n1cccn1` [MLS000065687], the IC50 came to 14.9 µM.
The molecule `O=C(Nc1cc(Cl)ccc1N1CCOCC1)c1cnccn1` [MLS000076142] had an IC50 greater than 50 µM.
`CNC=C1C(=O)C(C)(C)Oc2ccc3ccc(=O)oc3c21` [(10Z)-8,8-dimethyl-10-(methylaminomethylene)pyrano[2,3-f]chromene-2,9-quinone] yielded an IC50 greater than 50 µM.
Next, `O=C(O)[C@@H](c1ccccc1)N1Cc2ccccc2C1=O`: greater than 50 µM; `O=C(Nc1nccs1)c1ccc(Cl)c(S(=O)(=O)N2CCOCC2)c1` [4-chloranyl-3-morpholin-4-ylsulfonyl-N-(1,3-thiazol-2-yl)benzamide]: greater than 50 µM.
`CCOC(=O)c1sc(NC(=O)c2cc(S(=O)(=O)N3CCOCC3)ccc2C)nc1C` [4-methyl-2-[(2-methyl-5-morpholinosulfonyl-benzoyl)amino]thiazole-5-carboxylic acid ethyl ester] registered an IC50 greater than 50 µM.
Molecule `CC1CCN(S(=O)(=O)c2cccc(C(=O)NCc3cccs3)c2)CC1` [3-(4-Methyl-piperidine-1-sulfonyl)-N-thiophen-2-ylmethyl-benzamide] had an IC50 greater than 50 µM.
`CCOC(=O)COc1nc(OC)nc(N2CCOCC2)n1` [2-[(4-methoxy-6-morpholino-s-triazin-2-yl)oxy]acetic acid ethyl ester] gave an IC50 greater than 50 µM.
Next, `O=C1CCCC2=NC(Nc3nc4ccccc4o3)=NC3(CCCCC3)C12` (configuration not stated) [2-(1,3-benzoxazol-2-ylamino)-5-spiro[1,6,7,8-tetrahydroquinazoline-4,1'-cyclohexane]one]: greater than 50 µM; `Cc1ccc(C(=O)Nc2nccs2)cc1S(=O)(=O)N1CCCCC1` [4-methyl-3-(1-piperidinylsulfonyl)-N-(2-thiazolyl)benzamide]: greater than 50 µM.
For `CCN1CCN(C=Nc2nc3c(s2)CCCC3)CC1` [(4-ethylpiperazino)methylene-(4,5,6,7-tetrahydro-1,3-benzothiazol-2-yl)amine], the IC50 was greater than 50 µM.
Molecule `Cc1cc(=O)[nH]c(SCC(=O)c2ccc(C(C)C)cc2)n1` [MLS000089861] yielded an IC50 greater than 50 µM.
With `CCOc1ccc(NC(=O)CN2CCN(CC(=O)Nc3ccc4c(c3)OCO4)CC2)cc1` [2-[4-[2-(1,3-benzodioxol-5-ylamino)-2-keto-ethyl]piperazino]-N-p-phenetyl-acetamide], the IC50 is greater than 50 µM.
For `CC1(C)COCN1S(=O)(=O)c1ccc(C(=O)Nc2nnc(-c3ccc(Cl)s3)o2)cc1` [MLS000086346], the IC50 was greater than 50 µM.
Next, `Cc1sc2nc(-c3ccco3)oc(=O)c2c1C` [2-(2-furanyl)-5,6-dimethyl-4-thieno[2,3-d][1,3]oxazinone]: greater than 50 µM; `Cc1nn(C)c(C)c1NC(=O)c1ccnn1C` [2-Methyl-2H-pyrazole-3-carboxylic acid (1,3,5-trimethyl-1H-pyrazol-4-yl)-amide]: greater than 50 µM; `COc1cc(NC(=O)c2cccs2)c(OC)cc1NC(=O)CCn1nnc2ccccc21` [MLS000027885]: greater than 50 µM.
For the molecule `CCOC(=O)c1nnn(-c2nonc2N)c1CN(C)C1CCCCC1` [1-(4-amino-1,2,5-oxadiazol-3-yl)-5-[[cyclohexyl(methyl)amino]methyl]-4-triazolecarboxylic acid ethyl ester], the IC50 is greater than 50 µM.
`O=C(c1csc2c1CCCC2)n1cccn1` [1-(4,5,6,7-tetrahydro-1-benzothien-3-ylcarbonyl)-1H-pyrazole] yielded an IC50 of 3.83 µM.
Molecule `NC(=O)C1(N2CCCCC2)CCN(C(=O)Nc2ccccc2C(F)(F)F)CC1` [4-(1-piperidinyl)-N1-[2-(trifluoromethyl)phenyl]piperidine-1,4-dicarboxamide] displayed an IC50 greater than 50 µM.
Regarding `CCC(=O)n1nc(-c2ccco2)nc1SCc1ccccc1` [1-[3-(2-furanyl)-5-(phenylmethylthio)-1,2,4-triazol-1-yl]-1-propanone], the IC50 was greater than 50 µM.
With `Cc1ccccc1S(=O)(=O)Cc1ccc(C(=O)NCc2cccnc2)o1` [5-(o-tolylsulfonylmethyl)-N-(3-pyridylmethyl)-2-furamide], the IC50 was greater than 50 µM.
`CCCCC(=O)Nc1ccc(NC(=O)c2ccc3c(c2)OCO3)cc1OC` [MLS000097195]: the IC50 is greater than 50 µM.
Turning to `Cc1csc(NC(=O)c2ccc(C)c(S(=O)(=O)N3CCCCC3)c2)n1` [4-methyl-N-(4-methyl-1,3-thiazol-2-yl)-3-piperidin-1-ylsulfonyl-benzamide], the IC50 was greater than 50 µM.
Regarding `CCCCn1c(=O)cc(N2CCOCC2)[nH]c1=O` [SMR000018178], the IC50 was greater than 50 µM.
`CCOC(=O)c1c(C)n(C(=O)c2ccco2)c(=O)n1C(=O)c1ccco1` gave an IC50 of 8.54 µM.
In the case of `O=C(NC1CCS(=O)(=O)C1)c1cccc(S(=O)(=O)N2CCCCC2)c1` (configuration not stated) [MLS000049608], the IC50 is greater than 50 µM.
The figure for `Cc1nc2sc(C(c3cccs3)N3CCN(Cc4ccccc4)CC3)c(O)n2n1` (configuration not stated) [2-methyl-5-[[4-(phenylmethyl)-1-piperazinyl]-thiophen-2-ylmethyl]-6-thiazolo[3,2-b][1,2,4]triazolol] is greater than 50 µM; for `Cn1c(=O)c2[nH]c(NCC3CCCO3)nc2n(-c2ccccc2)c1=O` (configuration not stated) [1-methyl-8-(2-oxolanylmethylamino)-3-phenyl-7H-purine-2,6-dione] it is greater than 50 µM; for `CCN1CCN(c2ccc(-n3c(C)nc4c(cnn4-c4ccccc4Cl)c3=O)cc2)CC1` [1-(2-chlorophenyl)-5-[4-(4-ethyl-1-piperazinyl)phenyl]-6-methyl-4-pyrazolo[3,4-d]pyrimidinone] it is greater than 50 µM.
`Cc1cccc(COc2ccc(C(=O)C3C(=O)C(=O)N(CCN(C)C)C3c3ccncc3)cc2)c1` (configuration not stated) [(4E)-1-[2-(dimethylamino)ethyl]-4-[[4-[(3-methylphenyl)methoxy]phenyl]-oxidanyl-methylidene]-5-pyridin-4-yl-pyrrolidine-2,3-dione] showed a concentration for half-maximal inhibition (IC50) greater than 50 µM.
